This passage reports inhibition in vivo, Activity and Vd results from ChEMBL document CHEMBL6121044, “Discovery of Novel Spirocyclic MAT2A Inhibitors Demonstrating High In Vivo Efficacy in MTAP-Null Xenograft Models” (J Med Chem, 2025).

Series [1] has as its system HCT-116. Briefly: In vivo antitumor activity against MTAP-deleted human HCT-116 cells xenografted mouse model assessed as tumor growth inhibition at 30 mg/kg, po qd measured after 18 days relative to control. Type of series: functional. As to conditions: HCT-116, 432 h, time 18 day, read-out: TGI.
Series [2] relates to HCT-116. Description: In vivo antitumor activity against MTAP-deleted human HCT-116 cells xenografted mouse model assessed as tumor growth inhibition at 10 mg/kg, po qd measured after 18 days relative to control. The class given is functional. To be noted: HCT-116, 432 h, time 18 day, read-out: TGI. On the technique in general: A xenograft is tissue or cells of one species grown in another, often human tumour cells in immunodeficient mice.

Another series relates to KP-4. Briefly: In vivo antitumor activity against human KP-4 cells xenografted mouse model assessed as tumor growth inhibition at 90 mg/kg, po qd measured after 18 days relative to control. Type of series: functional. As to conditions: KP-4, 432 h, time 18 day, read-out: TGI.
Series [3] can be described thus: In vivo antitumor activity against MTAP-deleted human NCI-H838 cells xenografted mouse model assessed as tumor growth inhibition at 3 mg/kg, po qd measured after 18 days relative to control. As to conditions: NCI-H838, 432 h, time 18 day, read-out: TGI. Type of series: functional.
Series [4] deals with HCT-116. Description: In vivo antitumor activity against MTAP-deleted human HCT-116 cells xenografted mouse model assessed as tumor growth inhibition at 1 mg/kg, po qd measured after 18 days relative to control. The class given is functional. To be noted: HCT-116, 432 h, time 18 day, read-out: TGI.
Series [5] concerns HCT-116. Description: In vivo antitumor activity against MTAP-deleted human HCT-116 cells xenografted mouse model assessed as tumor growth inhibition at 3 mg/kg, po qd measured after 18 days relative to control. The class given is functional. To be noted: HCT-116, 432 h, time 18 day, read-out: TGI.
A short description of series [6]: Chronic toxicity in female ICR mouse assessed as body weight loss at 10 mg/kg, po once daily measured after 19 days relative to control. Type of series: organism-based. As to conditions: in vivo, 456 h, time 19 day.
Series [7] in a line: In vivo antitumor activity against MTAP-deleted human NCI-H838 cells xenografted mouse model assessed as tumor growth inhibition at 10 mg/kg, po qd measured after 18 days relative to control. The class given is functional. To be noted: NCI-H838, 432 h, time 18 day, read-out: TGI.
A short description of series [8]: Chronic toxicity in male ICR mouse assessed as body weight loss at 10 mg/kg, po once daily measured after 19 days relative to control. As to conditions: in vivo, 456 h, time 19 day. Type of series: organism-based.
Series [9] in a line: Volume of distribution at steady state in male ICR mouse at 2 mg/kg, iv measured upto 24 hrs by LC-MS/MS analysis. As to conditions: in vivo, read-out: Vdss. The class given is ADME, organism-based.
Series [10] can be described thus: In vivo antitumor activity against MTAP-deleted human KP-4 cells xenografted mouse model assessed as tumor growth inhibition at 10 mg/kg, po qd measured after 18 days relative to control. Type of series: functional. As to conditions: KP-4, 432 h, time 18 day, read-out: TGI.
Series [11] is described as follows: Toxicity in mouse xenografted with MTAP-deleted human HCT116 cells assessed as body weight loss at 10 mg/kg, po qd measured after 18 days relative to control. The class given is organism-based. As to conditions: in vivo, 432 h, time 18 day.

Structures are written as SMILES.

Consider `[2H]C([2H])([2H])NC1=NC(=O)[C@]2(CCc3ncccc32)c2cc(C(C)(F)F)ccc21`, for which the inhibition in vivo at 30 mg/kg with HCT-116 [1] turned out to be 85.4%. In the series with HCT-116 [2], the inhibition in vivo at 10 mg/kg is 72.1%. In the series on KP-4, the inhibition in vivo at 90 mg/kg was 74%.

In the case of `[2H]C([2H])([2H])NC1=NC(=O)[C@]2(CCc3ncccc32)c2cc(C(F)(F)F)ccc21`, the results for the inhibition in vivo at 3 mg/kg (in series [3]; in the series with HCT-116 [5]) were 61.5% and 85.9%, respectively. Also, the inhibition in vivo at 1 mg/kg in the series on HCT-116 [4] was determined as 61.9%. In addition, the values for the Activity in series [6], in series [8] and in series [11] were 2.36%, 9.77% and ~ 15%, respectively. Also, the inhibition in vivo at 10 mg/kg was found to be 78.1% in [7] and 80% in series [10]. Besides, the Vd in series [9] came to 1.7 L/kg.
